According to ChEMBL document CHEMBL1201862, “PubChem BioAssay data set” (2004):
Active and inactive are the calls of the source.

What was measured:
Galanin receptor type 3 = molecular target: T1, Galanin receptor type 3 (Homo sapiens, UniProt O60755); test: Fluorescence-based cell-based primary high throughput dose response assay to identify antagonists of the Galanin Receptor 3 (GalR3).; assay type: functional
T1 sequence (O60755 whole entry): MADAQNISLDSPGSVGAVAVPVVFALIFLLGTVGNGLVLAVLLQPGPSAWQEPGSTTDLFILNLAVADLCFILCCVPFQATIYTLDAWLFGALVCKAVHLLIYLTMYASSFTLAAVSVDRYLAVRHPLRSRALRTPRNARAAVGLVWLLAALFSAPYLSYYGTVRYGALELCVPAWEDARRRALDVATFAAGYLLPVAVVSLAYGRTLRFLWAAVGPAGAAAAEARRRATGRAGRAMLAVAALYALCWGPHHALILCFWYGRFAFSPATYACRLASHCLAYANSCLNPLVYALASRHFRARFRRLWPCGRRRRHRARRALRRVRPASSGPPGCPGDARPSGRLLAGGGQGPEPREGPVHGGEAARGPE

cells = assay type: functional, cell-based; details: HEK-CNG
[1] = molecular target: T2, Corticotropin-releasing factor receptor 2/Corticotropin-releasing factor-binding protein (Homo sapiens, UniProt P24387+Q13324); test: activators of CRF receptor 2 with binding protein – uHTS hits, confirmation (AID 602473); assay type: functional; details: read-out: EC50_Mean
T2 sequence (Q13324 whole entry): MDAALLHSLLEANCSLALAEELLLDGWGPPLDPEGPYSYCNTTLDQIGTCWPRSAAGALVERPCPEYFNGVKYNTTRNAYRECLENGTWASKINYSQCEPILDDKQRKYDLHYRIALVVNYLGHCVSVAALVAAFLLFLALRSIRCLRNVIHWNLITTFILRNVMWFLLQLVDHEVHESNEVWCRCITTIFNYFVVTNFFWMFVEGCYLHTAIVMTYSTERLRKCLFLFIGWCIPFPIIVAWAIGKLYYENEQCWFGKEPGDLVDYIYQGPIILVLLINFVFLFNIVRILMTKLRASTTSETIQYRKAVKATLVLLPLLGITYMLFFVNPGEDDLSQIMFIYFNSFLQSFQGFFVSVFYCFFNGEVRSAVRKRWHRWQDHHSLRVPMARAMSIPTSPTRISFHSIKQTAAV
T2 sequence (P24387 whole entry): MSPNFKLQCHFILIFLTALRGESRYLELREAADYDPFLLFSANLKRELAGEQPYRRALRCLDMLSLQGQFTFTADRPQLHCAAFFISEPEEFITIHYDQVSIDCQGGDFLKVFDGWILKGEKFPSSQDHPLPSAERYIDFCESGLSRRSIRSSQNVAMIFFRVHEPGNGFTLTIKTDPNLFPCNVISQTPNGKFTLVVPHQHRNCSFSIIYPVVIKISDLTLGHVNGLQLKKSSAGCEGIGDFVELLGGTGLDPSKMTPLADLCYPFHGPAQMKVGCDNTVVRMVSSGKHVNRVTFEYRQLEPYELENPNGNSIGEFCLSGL

[2] = molecular target: T2, Corticotropin-releasing factor receptor 2/Corticotropin-releasing factor-binding protein; test: Dose Response confirmation of uHTS hits for small molecule antagonists of the CRF-binding protein and CRF-R2 receptor complex.; assay type: functional; details: read-out: IC50_Mean
[3] = CRF-BP/CRF-R2 complex antagonists, dose response, cell-based, uHTS hits, 384-well (AID 651639); assay type: functional, Homo sapiens; details: read-out: IC50_Mean
[4] = HeLa cell cytotoxicity, dose response, cytotoxicity control for MgcRacGAP inhibitor project (AID 624300); assay type: functional
[5] = molecular target: Nuclear receptor subfamily 5 group A member 2 (Homo sapiens, UniProt O00482); assay type: functional, cell-based;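 further: HEK293T cells transfected with LRH-1 and a StAR promoter luciferase reporter; potency for inhibitors that lower LRH-1 driven reporter light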
[6] = StAR promoter reporter inhibition counter-screen, dose response, counter-screen for LRH-1 inverse agonist project, cell-based, luminescence, luciferase reporter (AID 651969); assay type: functional
Steroidogenic factor 1 = Steroidogenic factor 1 (Homo sapiens, UniProt Q13285); test: Counterscreen for inverse agonists of the liver receptor homolog-1 (LRH-1; NR5A2): Luminescence-based cell-based high throughput dose response assay to identify inverse agonists of the Steroidogenic Factor 1 Nuclear Receptor (SF1; NR5A1).; assay type: functional
[7] = molecular target: T3, E3 ubiquitin-protein ligase XIAP (Homo sapiens, UniProt P98170); test: XIAP antagonists, biochemical, IAP family, fluorescence polarization (AID 1018); assay type: functional
[8] = molecular target: Heat shock protein HSP 90-alpha (Homo sapiens, UniProt P07900); assay type: functional, organism-based
[9] = molecular target: T3, E3 ubiquitin-protein ligase XIAP; test: Counter Screen using XIAP-Bir3 for Chemical Antagonists of Bir1/2 domains of IAP-family anti-apoptotic proteins. [Related pubchem assays (depositor defined):AID1018, AID1449, AID1514, AID1638, AID1749, AID1750, AID488957, AID488963]
Leucine aminopeptidase = molecular target: T4, Leucine aminopeptidase (Plasmodium falciparum 3D7, UniProt Q8IL11); test: P. falciparum M17LAP inhibitors, primary screen, biochemical, fluorogenic H-Leu-NHMec substrate, 1536-well (AID 1619); assay type: functional
T4 sequence (Q8IL11 whole entry): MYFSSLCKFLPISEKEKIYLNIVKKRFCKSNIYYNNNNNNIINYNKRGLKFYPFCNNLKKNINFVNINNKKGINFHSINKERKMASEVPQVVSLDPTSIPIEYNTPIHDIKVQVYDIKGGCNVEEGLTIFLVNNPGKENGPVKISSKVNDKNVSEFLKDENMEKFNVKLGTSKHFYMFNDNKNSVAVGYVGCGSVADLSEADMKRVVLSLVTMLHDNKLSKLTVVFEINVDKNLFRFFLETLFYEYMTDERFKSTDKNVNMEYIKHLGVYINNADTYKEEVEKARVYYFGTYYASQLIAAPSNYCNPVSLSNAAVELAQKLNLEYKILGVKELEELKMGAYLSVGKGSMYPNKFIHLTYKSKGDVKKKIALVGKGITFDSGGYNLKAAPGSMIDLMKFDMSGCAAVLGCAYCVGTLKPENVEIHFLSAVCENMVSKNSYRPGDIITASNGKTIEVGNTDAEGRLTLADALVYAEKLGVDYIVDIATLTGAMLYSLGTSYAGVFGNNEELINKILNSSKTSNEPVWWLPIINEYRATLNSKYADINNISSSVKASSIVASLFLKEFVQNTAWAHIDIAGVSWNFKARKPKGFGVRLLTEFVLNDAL

[10] = HEp-2 cell cytotoxicity, dose response, cytotoxicity control for RSV inhibitor project, HTS (AID 2410); assay type: functional; details: human respiratory syncytial virus
Cysteine protease ATG4B = molecular target: T5, Cysteine protease ATG4B (Homo sapiens, UniProt Q9Y4P1); assay type: functional;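 further: Fluorescence-based dose-response confirmation assay measuring inhibition of ATG4B activity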
T5 sequence (Q9Y4P1 whole entry): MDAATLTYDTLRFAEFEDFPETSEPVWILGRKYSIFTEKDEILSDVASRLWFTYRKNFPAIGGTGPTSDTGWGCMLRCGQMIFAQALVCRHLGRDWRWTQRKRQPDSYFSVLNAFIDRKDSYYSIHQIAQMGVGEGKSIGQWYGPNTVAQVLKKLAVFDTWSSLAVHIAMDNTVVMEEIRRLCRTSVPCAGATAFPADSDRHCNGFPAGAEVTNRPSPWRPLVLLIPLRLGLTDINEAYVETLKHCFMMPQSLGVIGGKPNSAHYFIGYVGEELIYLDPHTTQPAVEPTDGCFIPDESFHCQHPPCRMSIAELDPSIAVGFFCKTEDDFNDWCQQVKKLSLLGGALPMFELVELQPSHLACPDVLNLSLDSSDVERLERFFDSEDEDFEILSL

Phospholipase A2 = Phospholipase A2 (Homo sapiens, UniProt P04054); assay type: functional;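 further: confirmatory dose-response counterscreen on phospholipase A2, testing hits that came from an ultra-high-throughput screen for ATG4B inhibitors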
[11] = molecular target: T6, Calpain-2 catalytic subunit (Sus scrofa, UniProt P43367); test: pig calpain II inhibitor potency, dose response, biochemical, fluorogenic peptide substrate (AID 1420); assay type: functional
T6 sequence (P43367 whole entry): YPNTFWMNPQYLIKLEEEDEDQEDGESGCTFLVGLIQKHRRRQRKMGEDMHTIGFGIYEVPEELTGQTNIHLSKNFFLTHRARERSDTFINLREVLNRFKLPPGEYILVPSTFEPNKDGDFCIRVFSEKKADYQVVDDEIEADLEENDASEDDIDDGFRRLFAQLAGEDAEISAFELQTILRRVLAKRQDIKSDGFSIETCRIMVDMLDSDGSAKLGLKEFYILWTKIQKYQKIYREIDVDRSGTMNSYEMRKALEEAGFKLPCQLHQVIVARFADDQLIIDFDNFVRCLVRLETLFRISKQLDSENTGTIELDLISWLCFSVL

Streptococcus = test: Group A Streptococcus viability loss, dose response, counter-screen for streptokinase expression inhibitor project, luminescence, BacTiterGlo (AID 1915); assay type: functional, organism-based;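 further: potency for reduction of bacterial viability or growth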
[12] = system: Streptococcus sp. 'group A'; test: growth inhibition of control SK(-) GAS strain, dose response, counter-screen for streptokinase expression inhibitor project, luminescence, kanamycin, BacTiterGlo, confirmation (AID 1900); assay type: functional, organism-based
[13] = molecular target: T7, Microphthalmia-associated transcription factor (Homo sapiens, UniProt O75030); test: TRPM1 promoter luciferase signal decrease, dose response, MITF inhibitor project, cell-based, SK-MEL-5, cherry-picked, set 3 (AID 493073); assay type: functional
T7 sequence (O75030 whole entry): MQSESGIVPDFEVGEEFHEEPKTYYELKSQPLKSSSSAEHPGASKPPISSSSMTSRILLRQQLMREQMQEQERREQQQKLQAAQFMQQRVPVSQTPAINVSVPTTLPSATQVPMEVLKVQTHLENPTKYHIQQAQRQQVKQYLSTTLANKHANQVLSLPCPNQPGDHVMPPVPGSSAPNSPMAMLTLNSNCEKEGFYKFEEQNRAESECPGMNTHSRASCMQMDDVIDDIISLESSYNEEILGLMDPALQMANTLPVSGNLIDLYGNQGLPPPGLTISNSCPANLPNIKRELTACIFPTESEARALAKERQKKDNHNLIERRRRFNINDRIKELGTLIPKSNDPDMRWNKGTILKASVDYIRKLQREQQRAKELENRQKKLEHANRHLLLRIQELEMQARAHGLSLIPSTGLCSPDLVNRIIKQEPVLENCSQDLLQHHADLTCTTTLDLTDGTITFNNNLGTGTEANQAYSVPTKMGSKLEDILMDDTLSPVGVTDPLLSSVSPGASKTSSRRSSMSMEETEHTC

Large T antigen = Large T antigen (Simian virus 40, UniProt P03070); assay type: functional, Betapolyomavirus macacae;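 further: Confirmatory-stage PubChem screen for compounds that inhibit SV40 T antigen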
[14] = Fluorescence-based cell-based high throughput dose response assay for inhibitors of the interaction of nucleotide-binding oligomerization domain containing 2 (NOD2) and the receptor-interacting serine-threonine kinase 2 (RIPK2).; assay type: functional; details: Homo sapiens
[15] = molecular target: FAD-linked sulfhydryl oxidase ALR (Homo sapiens, UniProt P55789); test: inhibitors of human ALR sulfhydryl oxidase, dose response, biochemical, H2O2 detection, luminescence, cherry-pick (AID 493248)
[16] = HEK293T cytotoxicity, dose response, cytotoxicity control for miR-122 modulator project, cell-based, inhibitor set, cherry-pick, set 2 (AID 720697); assay type: functional
[17] = miR-122 activators in hepatoma reporter cells, dose response, cell-based, Huh7 psiCHECK-miR122, Renilla luciferase, cherry-picked (AID 651956); assay type: functional;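 further: huh7 hepatoma cells stably carrying a psiCHECK-2 miR-122 sensor plasmid; renilla luciferase signal reporting endogenous miR-122 activity after 48 h compound exposure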

Nuclear receptor subfamily 5 group A member 2, sequence (O00482 whole entry): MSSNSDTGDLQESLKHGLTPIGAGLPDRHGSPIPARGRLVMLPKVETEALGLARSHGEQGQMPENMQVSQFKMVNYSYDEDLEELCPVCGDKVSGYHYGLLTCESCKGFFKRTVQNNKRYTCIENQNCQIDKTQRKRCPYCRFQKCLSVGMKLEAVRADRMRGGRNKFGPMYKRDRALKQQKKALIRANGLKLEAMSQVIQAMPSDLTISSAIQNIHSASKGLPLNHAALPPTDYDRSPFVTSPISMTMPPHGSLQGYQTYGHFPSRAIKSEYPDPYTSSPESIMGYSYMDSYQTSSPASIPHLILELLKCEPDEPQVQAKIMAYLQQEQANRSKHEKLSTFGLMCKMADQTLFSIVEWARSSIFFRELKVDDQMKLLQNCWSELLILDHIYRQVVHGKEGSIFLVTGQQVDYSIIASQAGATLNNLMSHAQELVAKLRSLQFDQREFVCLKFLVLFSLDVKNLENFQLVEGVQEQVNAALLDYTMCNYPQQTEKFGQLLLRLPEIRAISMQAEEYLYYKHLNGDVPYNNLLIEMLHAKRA
Steroidogenic factor 1, sequence (Q13285 whole entry): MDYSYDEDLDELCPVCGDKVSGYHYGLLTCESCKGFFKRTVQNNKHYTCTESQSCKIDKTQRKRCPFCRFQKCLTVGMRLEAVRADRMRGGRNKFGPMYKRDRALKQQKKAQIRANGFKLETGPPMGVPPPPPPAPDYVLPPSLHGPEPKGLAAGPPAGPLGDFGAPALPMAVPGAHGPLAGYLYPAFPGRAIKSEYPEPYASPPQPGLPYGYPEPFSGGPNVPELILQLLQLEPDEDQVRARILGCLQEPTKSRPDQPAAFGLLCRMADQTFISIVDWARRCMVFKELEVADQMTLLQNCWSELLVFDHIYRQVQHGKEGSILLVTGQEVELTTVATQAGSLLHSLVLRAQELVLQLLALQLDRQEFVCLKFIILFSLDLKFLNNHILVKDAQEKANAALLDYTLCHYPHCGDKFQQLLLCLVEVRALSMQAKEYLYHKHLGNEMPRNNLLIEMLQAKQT
T3 sequence (P98170 whole entry): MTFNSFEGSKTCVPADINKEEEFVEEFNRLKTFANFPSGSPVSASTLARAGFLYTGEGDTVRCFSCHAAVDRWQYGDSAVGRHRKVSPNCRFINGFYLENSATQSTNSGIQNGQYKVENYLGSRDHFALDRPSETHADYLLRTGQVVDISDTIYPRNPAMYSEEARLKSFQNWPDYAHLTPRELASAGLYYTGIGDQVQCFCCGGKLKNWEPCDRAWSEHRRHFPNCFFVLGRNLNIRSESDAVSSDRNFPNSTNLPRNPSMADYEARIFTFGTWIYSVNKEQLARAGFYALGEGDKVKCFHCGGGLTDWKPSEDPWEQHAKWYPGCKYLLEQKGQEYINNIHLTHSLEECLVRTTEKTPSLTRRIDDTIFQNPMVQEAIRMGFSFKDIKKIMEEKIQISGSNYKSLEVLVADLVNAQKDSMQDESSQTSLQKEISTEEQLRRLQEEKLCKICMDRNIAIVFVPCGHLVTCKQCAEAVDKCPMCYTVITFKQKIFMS
Large T antigen, sequence (P03070 whole entry, the tested form may be a part): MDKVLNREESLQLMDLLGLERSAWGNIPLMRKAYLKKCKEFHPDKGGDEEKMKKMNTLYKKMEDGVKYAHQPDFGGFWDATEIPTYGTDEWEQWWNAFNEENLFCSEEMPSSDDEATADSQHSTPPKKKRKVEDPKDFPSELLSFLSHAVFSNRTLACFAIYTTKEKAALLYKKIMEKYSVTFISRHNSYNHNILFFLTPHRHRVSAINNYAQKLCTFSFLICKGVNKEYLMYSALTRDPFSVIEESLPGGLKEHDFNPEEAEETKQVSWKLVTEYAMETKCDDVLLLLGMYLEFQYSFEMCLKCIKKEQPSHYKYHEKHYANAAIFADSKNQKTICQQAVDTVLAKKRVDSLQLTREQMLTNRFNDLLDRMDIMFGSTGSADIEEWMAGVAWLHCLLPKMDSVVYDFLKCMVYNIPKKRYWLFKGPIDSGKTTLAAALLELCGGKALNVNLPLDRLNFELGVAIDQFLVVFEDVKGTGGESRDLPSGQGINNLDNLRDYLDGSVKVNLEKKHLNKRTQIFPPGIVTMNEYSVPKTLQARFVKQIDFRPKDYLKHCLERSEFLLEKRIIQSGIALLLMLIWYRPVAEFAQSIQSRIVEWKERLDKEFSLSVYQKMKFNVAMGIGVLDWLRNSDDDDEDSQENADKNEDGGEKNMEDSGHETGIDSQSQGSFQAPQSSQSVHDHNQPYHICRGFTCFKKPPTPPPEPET
Phospholipase A2, sequence (P04054 whole entry): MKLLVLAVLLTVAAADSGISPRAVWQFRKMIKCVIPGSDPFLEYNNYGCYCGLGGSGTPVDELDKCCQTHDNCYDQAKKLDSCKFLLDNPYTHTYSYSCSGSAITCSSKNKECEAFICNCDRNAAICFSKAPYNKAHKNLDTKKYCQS
FAD-linked sulfhydryl oxidase ALR, sequence (P55789 whole entry): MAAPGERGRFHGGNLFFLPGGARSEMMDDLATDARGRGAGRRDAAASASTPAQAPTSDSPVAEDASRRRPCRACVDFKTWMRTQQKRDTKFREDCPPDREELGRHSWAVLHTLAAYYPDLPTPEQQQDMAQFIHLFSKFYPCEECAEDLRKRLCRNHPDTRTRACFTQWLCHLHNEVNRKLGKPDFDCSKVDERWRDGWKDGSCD

CCOC(=O)c1[nH]c2ccc(OC)cc2c1NS(=O)(=O)c1ccc(Cl)s1
IC50 (Galanin receptor type 3): 1.45 µM (active) | EC50 (cells): > 29.9 µM (inactive)

COc1cccc(NC(=O)c2cc(S(=O)(=O)N3CCc4ccccc43)cn2C)c1
EC50 [1]: > 53 µM (inactive) | IC50 [2]: < 0.368 µM (active) | IC50 [3]: > 20 µM (inactive)

N=C(NOC(=O)N1c2ccccc2Sc2ccccc21)c1ccc(Br)cc1
CC50 [4]: 63.6 µM (active)

CCc1cc(=O)oc2c(C)c(OCC(=O)NCCCN3CCCC3=O)ccc12
IC50 [5]: 35.9 µM (inactive) | IC50 [6]: 35.9 µM (inactive) | IC50 (Steroidogenic factor 1): 35.9 µM (inactive)

CCOc1ccccc1N1CCN(C(=O)c2cccc(-c3ccc(O)cc3)c2)CC1
IC50 [7]: > 100 µM (not active) | AC50 [8]: 3.3 µM (active) | IC50 [9]: > 100 µM (inactive)

CCc1c(C)nc(SCC(=O)Nc2ccc3c(c2)OCCO3)[nH]c1=O
IC50 [5]: 1.54 µM (active) | IC50 (Leucine aminopeptidase): 10.2 µM (active) | IC50 (Steroidogenic factor 1): 0.599 µM (active)

CCc1c(C)nc(SCC(=O)Nc2ccc3c(c2)OCCO3)nc1O
IC50 [6]: 35.9 µM (inactive)

CC(C)(C)c1nc(SCC(=O)c2ccccc2)c2ccccc2n1
CC50 [10]: 39.5 µM (active) | IC50 (Cysteine protease ATG4B): 15.8 µM (active) | IC50 (Phospholipase A2): 10.1 µM (active) | IC50 [11]: > 50 µM (not active)

Cn1c(C(=O)NN)cc2cc(Oc3ccccc3)ccc21
IC50 (Galanin receptor type 3): 8.17 µM (active) | EC50 (cells): > 29.9 µM (inactive)

Cc1ccc(-c2nn3c(C)nnc3s2)cc1NC(=O)c1ccco1
IC50 [5]: 18.3 µM (inactive) | IC50 [6]: 35.9 µM (inactive) | IC50 (Steroidogenic factor 1): 8.56 µM (active)

O=[N+]([O-])c1ccc(-c2cc(O)n3nc(-c4ccc(F)cc4)cc3n2)cc1
EC50 [1]: > 53 µM (inactive) | IC50 [2]: 27.4 µM (active) | EC50 (Streptococcus): 6.44 µM (active) | IC50 [3]: 12.9 µM (active) | EC50 [12]: 4.2 µM (active)

O=[N+]([O-])/C=C\c1ccc(N2CCOCC2)cc1
AC50 [13]: 13.6 µM (active) | IC50 (Large T antigen): > 100 µM (active) | IC50 [14]: 4.32 µM (active)

COc1ccccc1-c1sc2cc3c(cc2c1-c1ccc(O)cc1)OCO3
AC50 [8]: 8.22 µM (active)

O=C(Nc1ccc(Oc2ccccc2)cc1)c1csc(COCCO)n1
IC50 (Galanin receptor type 3): 1.39 µM (active) | EC50 (cells): > 29.9 µM (inactive)

Cc1nc2c(C)cccc2cc1C(=O)N/N=C/c1ccc(O)cc1
EC50 [1]: > 53 µM (inactive) | IC50 [2]: 33.1 µM (active) | IC50 [3]: > 20 µM (inactive) | AC50 [15]: 0.025 µM (active)

CN(C)c1ncnc2c1ncn2C1OC(CO)C(O)C1O (configuration not stated)
AC50 [16]: 8.52 µM (active) | AC50 [17]: 25.4 µM (active)
